Results on 9 compounds are retold here after patent US6897212B2, “Treatment of oppositional defiant disorder and conduct disorder with 5-aminoalkyl-4,5,6,7-tetrahydro-4-oxyindolones” (Afecta Pharmaceuticals, priority 2002, dated 2005).

For series [1] the following is noted: cited from earlier work.
The test system of series [2] is children with undersocialized conduct disorder, aggressive type. The note with it: cited from earlier work; for behavior ratings: double-blind study, 31 children, ages 6-11 years (Greenhill et al., 1985).
The test system of the next series is patients with ODD. The series can be described thus: treatment of patients with oppositional defiant disorder and conduct disorder. It is filed as in vivo, human. An excerpt: The side effect is totally unacceptable to teenagers.
Case histories are set out in the following examples, which are offered by way of illustration and are not intended to limit the invention in any manner.

A short description of series [3]: weight gain in treated patients.
Another series concerns the target Dopamine 1 receptor (Homo sapiens, UniProt P21728). The series can be described thus: binding affinity to Dopamine 1 receptor in cell membrane homogenates.
In the next series the target is 5-HT2A (Homo sapiens, UniProt P28223). The series can be described thus: in vitro activity (pA2) on cells expressing serotonine receptors.
In the next series the target is Dopamine 2 receptor (Homo sapiens, UniProt P14416). The series can be described thus: binding affinity to Dopamine 2 receptor in cell membrane homogenates.
The next series concerns the target T1, Serotonin 2A receptor (Homo sapiens, UniProt P28223).
T1 construct: membrane homogenates
The series can be described thus: binding affinity to Serotonin 2A receptor in cell membrane homogenates. As to conditions: for Ki: cell membrane homogenates, read-out: pKi 5-HT2A (converted); for pKi ratio 5-HT2A/D2: ratio of Serotonin 2A binding to Dopamine 2 binding. The source says: The formulae of the compounds are [drawing 6]
Here, the pKi value is a measure for the binding affinity of the test compounds to the receptors present in cell membrane homogenates. D1 refers to the Dopamine 1 receptor, D2 refers to the Dopamine 2 receptor, and 5-HT2A refers to the Serotonin 2A receptor, while the pKi ratio presents the ratio of Serotonin 2A binding to Dopamine 2 binding.

Series [4] deals with patients with refractory depression. As to conditions: 19 patients with refractory depression; molindone 10-30 mg/day; cited from earlier work.
For series [5] the following is noted: cited from earlier work. The source holds these as a separate data set.
The conditions of series [6]: human, in vivo.
The subject of another series is monoamine oxidase. The note with it: in vitro and in vivo; cited from earlier work.

Read-outs that look alike come from different tables or passages of the source.

T1 sequence (P28223 whole entry): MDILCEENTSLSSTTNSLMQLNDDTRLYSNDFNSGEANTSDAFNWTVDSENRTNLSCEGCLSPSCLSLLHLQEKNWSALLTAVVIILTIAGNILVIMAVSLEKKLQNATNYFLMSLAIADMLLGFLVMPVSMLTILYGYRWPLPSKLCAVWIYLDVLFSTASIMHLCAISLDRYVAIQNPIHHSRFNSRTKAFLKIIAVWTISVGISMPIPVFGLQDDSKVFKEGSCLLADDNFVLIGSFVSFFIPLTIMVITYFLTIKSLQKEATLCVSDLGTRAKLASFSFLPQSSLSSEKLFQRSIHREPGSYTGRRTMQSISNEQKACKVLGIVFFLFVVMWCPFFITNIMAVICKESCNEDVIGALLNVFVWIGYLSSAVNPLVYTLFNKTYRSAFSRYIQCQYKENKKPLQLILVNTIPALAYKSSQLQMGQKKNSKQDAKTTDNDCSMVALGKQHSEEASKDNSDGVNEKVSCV
Sequence of 5-HT2A (P28223 whole entry, species assumed): as the sequence (P28223 whole entry) above
Sequence of Dopamine 2 receptor (P14416 whole entry): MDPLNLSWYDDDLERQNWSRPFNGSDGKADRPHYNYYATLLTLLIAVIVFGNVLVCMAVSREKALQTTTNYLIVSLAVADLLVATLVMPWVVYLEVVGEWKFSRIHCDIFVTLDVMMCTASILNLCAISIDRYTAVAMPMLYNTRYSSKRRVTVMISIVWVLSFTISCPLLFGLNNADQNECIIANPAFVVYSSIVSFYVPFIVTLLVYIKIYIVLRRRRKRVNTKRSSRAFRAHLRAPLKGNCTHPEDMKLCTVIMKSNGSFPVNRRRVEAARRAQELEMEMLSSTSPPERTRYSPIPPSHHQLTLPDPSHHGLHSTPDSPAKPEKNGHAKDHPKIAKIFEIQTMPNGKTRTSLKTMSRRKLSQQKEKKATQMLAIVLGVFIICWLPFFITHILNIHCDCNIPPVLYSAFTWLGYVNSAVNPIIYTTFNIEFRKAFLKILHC
Sequence of Dopamine 1 receptor (P21728 whole entry): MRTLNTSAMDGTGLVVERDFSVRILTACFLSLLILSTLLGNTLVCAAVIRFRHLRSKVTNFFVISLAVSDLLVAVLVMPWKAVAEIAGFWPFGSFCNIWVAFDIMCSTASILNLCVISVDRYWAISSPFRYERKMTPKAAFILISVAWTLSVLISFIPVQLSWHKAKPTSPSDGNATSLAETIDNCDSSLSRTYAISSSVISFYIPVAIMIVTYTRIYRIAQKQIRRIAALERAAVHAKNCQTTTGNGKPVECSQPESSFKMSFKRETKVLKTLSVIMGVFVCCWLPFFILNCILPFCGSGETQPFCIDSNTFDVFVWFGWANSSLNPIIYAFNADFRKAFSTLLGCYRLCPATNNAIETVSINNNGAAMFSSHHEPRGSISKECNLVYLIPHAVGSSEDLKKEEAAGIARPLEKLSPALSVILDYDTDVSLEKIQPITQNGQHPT

With `CN(C)CCCN1c2ccccc2Sc2ccc(Cl)cc21` [chlorpromazine], in series [1], the “fraction in plasma not bound to protein” value is 0.13%.

As to `CSc1ccc2c(c1)N(CCC1CCCCN1C)c1ccccc1S2` (stereo not drawn) [thioridazine], the behavior ratings result in series [2] is reported as “improvement in behavior ratings”.

In the case of `O=C(CCCN1CCC(O)(c2ccc(Cl)cc2)CC1)c1ccc(F)cc1` [haloperidol], in series [1], the “fraction in plasma not bound to protein” value is 9%.

`Cc1nc2n(c(=O)c1CCN1CCC(c3noc4cc(F)ccc34)CC1)CCCC2` [risperidone]: the “effect on oppositional behavior” value in the series on patients with ODD (Example 3, patient one, used instead of molindone) is “significant improvement in the oppositional behavior”. In addition, in the series on patients with ODD (unpublished observations), the “treatment of ODD” value is reported as “capable of effectively treating ODD”. The weight gain entry is given as “significant weight gain” in [3] (Example 3, patient one) and “unacceptable level of weight gain, sometimes approaching a pound a day” in series [3] (patients, especially children).

Turning to `CCc1c(C)[nH]c2c1C(=O)C(CCN1CCOCC1)CC2` (stereo not drawn) [Compound 1], the results for the Ki on Dopamine 1 receptor, at Dopamine 2 receptor and at Serotonin 2A receptor were 2140 nM, 589 nM and 912 nM, respectively. The same compound had a Kb on 5-HT2A of 105 nM. Further, the “pKi ratio 5-HT2A/D2” value on Serotonin 2A receptor turned out to be 0.97.

In the case of `CCc1c(C)[nH]c2c1C(=O)C(CCN1CCN(c3ccccc3OC)CC1)CC2` (stereo not drawn) [Compound 2], the Kb at 5-HT2A is 31.6 nM. The Ki on Dopamine 2 receptor was 28.2 nM. In addition, on Serotonin 2A receptor, the Ki was 91.2 nM and the “pKi ratio 5-HT2A/D2” value is 0.97.

Turning to `N[C@@H]1C[C@H]1c1ccccc1` (racemic) [tranylcypromine], in series [4], the “patients showing definite improvement” value is “two”.

As for `Cc1cc2c(s1)Nc1ccccc1N=C2N1CCN(C)CC1` [olanzapine], the weight gain result is given as “significant weight gain” in series [3] (Example 3, patient one) and “unacceptable level of weight gain, sometimes approaching a pound a day” in series [3] (patients, especially children).

With `CCc1c(C)[nH]c2c1C(=O)C(CN1CCOCC1)CC2` (stereo not drawn) [Molindone, 3-ethyl-6,7-dihydro-2-methyl-5-(morpholinomethyl)indol-4-(5H)-one], the “effect on tantrums, hitting, rages and swearing” value in the series on patients with ODD (Example 1, patient three, ¼ of a 5 mg tablet every 4 hours) is “immediate cessation of the tantrums, hitting and rages and less swearing”. The “effect of raised dose” value with patients with ODD (Example 1, patient three, ½ of a 5 mg tablet every 4 hours after three months) is “more effective”. In addition, the “effect on tantrums and aggressive behaviors” value with patients with ODD (Example 2, patient two, 2.5 mg every 4 hours) was “the tantrums and aggressive behaviors disappeared”. In addition, in the series with patients with ODD (Example 2, patient two, after 6 months of use), the persistence of effect result was “still effective”. The “effect on behavior after molindone was again initiated” value in the series on patients with ODD (Example 3, patient one) is “immediate and dramatic improvement in the behavior”. Further, the “effect on oppositional behavior” value in the series on patients with ODD (Example 3, patient one, molindone 10 mg bid) is reported as “dramatic decrease in oppositional behavior”. Also, in the series with patients with ODD (more than 50 patients with ODD, usual dose 1.25 to 10 mg every 4 hours), the “treatment of ODD” value is “successfully treated”. In addition, the prolongation of half-life result in [5] (concomitant lithium therapy) is “at least fourfold”. Also, in [5] (humans), the elimination half-life entry is recorded as “approximately 2 hours”. Also, the behavior ratings result in [2] was “improvement in behavior ratings”. Besides, the “aggressive behavior and Nurses' Global Assessment Scale” value in series [2] (open trial, six patients, ages 6-11 years (Greenhill et al., 1981)) is listed as “some improvement”. Further, the weight gain result in [6] is on record as “rarely, if ever, causes weight gain”. Moreover, in series [4], the “patients showing definite improvement” value was “Five of the 10 patients”. In the series on monoamine oxidase, the “inhibition of monoamine oxidase” value is “inhibits the enzyme monoamine oxidase in vitro and in vivo”.
